± gives the expanded uncertainty stated by the source.

Series [1] in a line: Molar enthalpy of transition or fusion. Conditions: Crystal; DSC.
For series [2] the following is noted: Crystal; DTA.

Consider `Br.c1ccc(NC2=NCCC3(CCCCC3)[Se]2)cc1`, for which the “Molar enthalpy of transition or fusion” value in series [1] was determined as 4.3 ± 0.263 kcal/mol. For the same compound, in series [2], the Normal melting temperature stood at 144.8 ± 0.5 °C.
Take `Br.Fc1ccc(NC2=NCCC3(CCCCC3)[Se]2)cc1`: the “Molar enthalpy of transition or fusion” value in series [1] was determined as 6 ± 0.263 kcal/mol. For the same compound, in series [2], the Normal melting temperature was 196.2 ± 0.5 °C.
For `Br.CC(C)c1ccc(NC2=NCCC3(CCCCC3)[Se]2)cc1`, in that order: 3.08 ± 0.239 kcal/mol and 148.4 ± 0.5 °C.

For the origin of these results see the NIST ThermoML archive (doi:10.1021/je500363r).
